Test results taken from ChEMBL document CHEMBL5131536, “Novel Quinoline Compounds as EZH2 Inhibitors for Treating Cancer” (ACS Med Chem Lett, 2022).

Target: Histone-lysine N-methyltransferase EZH2 (Homo sapiens, UniProt Q15910)
Assay: Inhibition of EZH2 in human G-401 cells assessed as reduction in H3K27 methylation incubated for 48 hrs by ELISA
Type: cell-based

Chain of Histone-lysine N-methyltransferase EZH2 (Q15910 whole entry): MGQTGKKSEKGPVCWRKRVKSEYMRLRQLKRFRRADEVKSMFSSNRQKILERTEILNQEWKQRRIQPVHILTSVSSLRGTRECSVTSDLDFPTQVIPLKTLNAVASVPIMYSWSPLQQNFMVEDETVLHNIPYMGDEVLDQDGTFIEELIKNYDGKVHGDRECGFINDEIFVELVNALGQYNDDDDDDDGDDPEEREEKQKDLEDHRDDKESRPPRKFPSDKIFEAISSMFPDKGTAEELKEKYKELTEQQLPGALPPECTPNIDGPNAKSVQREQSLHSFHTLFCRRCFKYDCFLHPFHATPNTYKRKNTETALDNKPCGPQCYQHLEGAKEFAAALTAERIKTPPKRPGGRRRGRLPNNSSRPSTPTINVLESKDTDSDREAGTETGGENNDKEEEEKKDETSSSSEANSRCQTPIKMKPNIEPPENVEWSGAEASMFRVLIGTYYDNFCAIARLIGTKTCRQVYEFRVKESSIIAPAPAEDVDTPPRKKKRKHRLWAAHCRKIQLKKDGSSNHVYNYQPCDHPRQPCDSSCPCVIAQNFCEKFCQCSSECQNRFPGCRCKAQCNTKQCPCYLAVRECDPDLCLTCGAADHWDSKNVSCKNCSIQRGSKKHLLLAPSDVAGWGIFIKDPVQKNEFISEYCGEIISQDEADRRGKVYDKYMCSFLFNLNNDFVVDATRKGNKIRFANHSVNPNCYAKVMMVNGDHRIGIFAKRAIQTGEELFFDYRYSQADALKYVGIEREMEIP

Compound	IC50 [nM]
Cc1ccc2ccc(N[C@H]3CC[C@H](CNc4ncc(C(F)(F)C(=O)NC5COC5)cn4)CC3)nc2c1Cl	< 10
Cc1ccc2ccc(N[C@H]3CC[C@H](CNc4ncc(C(CO)C(=O)NC5COC5)cn4)CC3)nc2c1Cl (stereo partly specified)	< 10
Cc1ccc2ccc(N[C@H]3CC[C@H](CNc4ccc(CC(=O)NC5COC5)cn4)CC3)nc2c1Cl	< 10
Cc1ccc2ccc(N[C@H]3CC[C@H](CNc4ncc(CC(=O)NC5COC5)cn4)CC3)nc2c1Cl	< 10

Continued, values first:

IC50 [nM]	Compound
< 10	Cc1ccc2ccc(N[C@H]3CC[C@H](CNc4ncc(C(C#N)C(=O)NC5COC5)cn4)CC3)nc2c1Cl (stereo partly specified)
< 10	Cc1ccc2ccc(N[C@H]3CC[C@H](CNc4ncc(C(O)C(=O)NC5COC5)cn4)CC3)nc2c1Cl (stereo partly specified)
